Like-named read-outs stand apart in the source and are kept apart here.
Assays:
P388 = assay: In vitro cytotoxicity; assay type: cell-based
Description: (§1) Experiments were repeated at least 3 times.

MES-SA = assay: In vitro cytotoxicity; assay type: cell-based; settings: read-out: IC50
Description: as §1

P388/ADR = assay: In vitro cytotoxicity; assay type: cell-based; settings: read-out: IC50
Description: as §1

A431-G2 = assay: In vitro cytotoxicity; assay type: cell-based
Description: as §1

A431 = assay: In vitro cytotoxicity; assay type: cell-based
Description: as §1

MES-SA/Dx5 = assay: In vitro cytotoxicity; assay type: cell-based; settings: MES-SA/Dx5; read-out: IC50
Description: as §1

A431-B1 = assay: In vitro cytotoxicity; assay type: cell-based
Description: as §1

[1] = test system: Lewis Lung Carcinoma (LLC) tumor; assay: Mouse Lewis lung carcinoma (LLC) model; assay type: in vivo, C57BL/6 mice; settings: single intravenous dose; cisplatin 5 mg/kg, LiPyDau 1 mg/kg
Experimental: FIG. 6. Anti-tumor effect of LiPyDau and cisplatin in the mouse Lewis lung cancer (LLC) lung carcinoma model. C57BL/6 mice received sc. injection of 2×10^5 LLC cells in 100 μl PBS. When the tumors were palpable, mice were randomized to receive a single intravenous dose of cisplatin (5 mg/kg) or LiPyDau (1 mg/kg) as indicated by the arrow. Control mice were treated with saline.
Mouse melanoma (B16), lung (Lewis lung carcinoma, LLC) and breast (4T1-LUC) cancer cell lines were used to establish allograft tumors for drug testing. 5×10^5 B16 or 2×10^5 LLC cells were inoculated subcutaneously in 200 μl serum-free culture media. 4T1-LUC tumors were established by injecting 1×10^6 cells in 20 μl serum-free culture media through the nipple directly to the breast tissue of 8 weeks old BALB/c mice on day 0). […] For the B16, LLC and 4T1-LUC tumor models 4, 6 and 6 mice were treated with LiPyDau while 4, 3 and 6 animals were in the saline treated groups, respectively.

T-47D = settings: NCI-60 database, sulforhodamine B, read-out: Cytotoxic IC50; cited from earlier work
UO-31 = settings: UO-31, NCI-60 database, sulforhodamine B; read-out: Cytotoxic IC50; cited from earlier work
RXF 393 = settings: RXF 393, NCI-60 database, sulforhodamine B; read-out: Cytotoxic IC50; cited from earlier work
HS 578T = settings: NCI-60 database, sulforhodamine B, read-out: Cytotoxic IC50; cited from earlier work
CAKI-1 = settings: CAKI-1, NCI-60 database, sulforhodamine B; read-out: Cytotoxic IC50; cited from earlier work
OVCAR-8 = settings: OVCAR-8, NCI-60 database, sulforhodamine B; read-out: Cytotoxic IC50; cited from earlier work
EKVX = settings: NCI-60 database, sulforhodamine B, read-out: Cytotoxic IC50; cited from earlier work
HCC-2998 = settings: HCC-2998, NCI-60 database, sulforhodamine B; read-out: Cytotoxic IC50; cited from earlier work
HCT-15 = settings: HCT-15, NCI-60 database, sulforhodamine B; read-out: Cytotoxic IC50; cited from earlier work
MDA-MB-435 = settings: MDA-MB-435, NCI-60 database, sulforhodamine B; read-out: Cytotoxic IC50; cited from earlier work
PANC-1 = settings: PANC-1, from Varbanov et al. (2017), PrestoBlue; read-out: Cytotoxic IC50; cited from earlier work
OVCAR-3 = settings: OVCAR-3, NCI-60 database, sulforhodamine B; read-out: Cytotoxic IC50; cited from earlier work
COLO 205 = settings: COLO 205, NCI-60 database, sulforhodamine B; read-out: Cytotoxic IC50; cited from earlier work
KM12 = settings: KM12, NCI-60 database, sulforhodamine B; read-out: Cytotoxic IC50; cited from earlier work
HT29 = settings: HT29, NCI-60 database, sulforhodamine B; read-out: Cytotoxic IC50; cited from earlier work
SW-620 = settings: SW-620, NCI-60 database, sulforhodamine B; read-out: Cytotoxic IC50; cited from earlier work
MCF7 = settings: MCF7, NCI-60 database, sulforhodamine B; read-out: Cytotoxic IC50; cited from earlier work
CCRF-CEM = settings: NCI-60 database, sulforhodamine B, read-out: Cytotoxic IC50; cited from earlier work
SK-MEL-2 = settings: SK-MEL-2, NCI-60 database, sulforhodamine B; read-out: Cytotoxic IC50; cited from earlier work
HCT-116 = settings: HCT-116, NCI-60 database, sulforhodamine B; read-out: Cytotoxic IC50; cited from earlier work
PC-3 = settings: PC-3, NCI-60 database, sulforhodamine B; read-out: Cytotoxic IC50; cited from earlier work
HOP-62 = settings: HOP-62, NCI-60 database, sulforhodamine B; read-out: Cytotoxic IC50; cited from earlier work
BT-549 = settings: BT-549, NCI-60 database, sulforhodamine B; read-out: Cytotoxic IC50; cited from earlier work
NCI-H226 = settings: NCI-H226, NCI-60 database, sulforhodamine B; read-out: Cytotoxic IC50; cited from earlier work
DU-145 = settings: DU-145, NCI-60 database, sulforhodamine B; read-out: Cytotoxic IC50; cited from earlier work
HL-60(TB) = settings: NCI-60 database, sulforhodamine B, read-out: Cytotoxic IC50; cited from earlier work
MALME-3M = settings: NCI-60 database, sulforhodamine B, read-out: Cytotoxic IC50; cited from earlier work
MDA-MB-231 = settings: MDA-MB-231, NCI-60 database, sulforhodamine B; read-out: Cytotoxic IC50; cited from earlier work
NCI-60 cell lines = assay: NCI DTP NCI-60 cell line screen database (sulforhodamine B), panel; assay type: cell-based; settings: Homo sapiens
NCI/ADR-RES = settings: NCI-60 database, sulforhodamine B, read-out: Cytotoxic IC50; cited from earlier work
A498 = settings: A498, NCI-60 database, sulforhodamine B; read-out: Cytotoxic IC50; cited from earlier work
SK-MEL-28 = settings: SK-MEL-28, NCI-60 database, sulforhodamine B; read-out: Cytotoxic IC50; cited from earlier work
OVCAR-5 = settings: OVCAR-5, NCI-60 database, sulforhodamine B; read-out: Cytotoxic IC50; cited from earlier work
[2] = Nagy et al.; cited from earlier work
[3] = test system: nitrosamine-induced pancreatic cancers; settings: intraperitoneal, total dose of 100 nmol/kg; cited from earlier work
[4] = test system: Dunning R-3327-H prostate carcinoma; settings: cited from earlier work
[5] = test system: patient-derived lung adenocarcinoma xenografts; assay: Patient-derived xenograft (PDX) model; assay type: in vivo, NSG mice; settings: single treatment; LiPyDau 0.5 mg/kg, DOX 2 mg/kg, paclitaxel 12 mg/kg; 7 days
Description: A piece from the tumor tissue was transplanted subcutaneously into the right flank and propagated in NOD.Cg-Prkdc^scid Il2rg^tm1Wjl/SzJ (NSG) mice for 7 months. After the xenografted tumor reached 1000 mm^3, tumor pieces were retransplanted subcutaneously into the right flank of 20 additional NSG mice, which were given a single treatment with various chemotherapeutics or LiPyDau. Every treatment group consists of 5 animals. After daily monitoring of the tumor volume for one week, the mice were sacrificed and the cytotoxicity of the treatments was investigated on tissue slices by image analysis.
For treatment, tumor pieces were engrafted subcutaneously.

N.N.[Cl][Pt][Cl] [Cisplatin, cisplatin]
IC50 (P388): 610 nM | IC50 (MES-SA): 7580 nM | IC50 (P388/ADR): 1180 nM | IC50 (A431-G2): 1950 nM | IC50 (A431): 3860 nM | IC50 (MES-SA/Dx5): 12500 nM | IC50 (A431-B1): 3950 nM | Tumor growth [1]: did not have any measurable effect on tumor growth

COc1cccc2c1C(=O)c1c(O)c3c(c(O)c1C2=O)C[C@@](O)(C(C)=O)C[C@@H]3O[C@H]1C[C@H](N)[C@H](O)[C@H](C)O1 [Dau, daunorubicin]
IC50 (T-47D): 40.8 nM | IC50 (UO-31): 175 nM | IC50 (RXF 393): 92.5 nM | IC50 (HS 578T): 120 nM | IC50 (CAKI-1): 229 nM | IC50 (OVCAR-8): 41.6 nM | IC50 (EKVX): 360 nM | IC50 (HCC-2998): 99.3 nM | IC50 (HCT-15): 650 nM | IC50 (MDA-MB-435): 137 nM | IC50 (PANC-1): 260 nM | IC50 (OVCAR-3): 124 nM | IC50 (COLO 205): 52.5 nM | IC50 (KM12): 95.9 nM | IC50 (HT29): 50.7 nM | IC50 (SW-620): 35.5 nM | IC50 (MCF7): 19.5 nM | IC50 (CCRF-CEM): 22.8 nM | IC50 (SK-MEL-2): 158 nM | IC50 (HCT-116): 28.6 nM | IC50 (PC-3): 108 nM | IC50 (HOP-62): 53 nM | IC50 (BT-549): 153 nM | IC50 (NCI-H226): 46.5 nM | IC50 (DU-145): 76.7 nM | IC50 (HL-60(TB)): 31.2 nM | IC50 (MALME-3M): 49.7 nM | IC50 (MDA-MB-231): 201 nM | IC50 (NCI-60 cell lines; read-out: Cytotoxic IC50, av. breast): 112 nM | IC50 (NCI-60 cell lines; read-out: Cytotoxic IC50, av. colorectal): 145 nM | IC50 (NCI-60 cell lines; read-out: Cytotoxic IC50, av. leukaemia): 27 nM | IC50 (NCI-60 cell lines; read-out: Cytotoxic IC50, av. lung): 157 nM | IC50 (NCI-60 cell lines; read-out: Cytotoxic IC50, av. melanoma): 113 nM | IC50 (NCI-60 cell lines; read-out: Cytotoxic IC50, av. ovarian): 388 nM | IC50 (NCI-60 cell lines; read-out: Cytotoxic IC50, av. prostatic): 92.2 nM | IC50 (NCI-60 cell lines; read-out: Cytotoxic IC50, av. renal): 158 nM | IC50 (NCI/ADR-RES): 1230 nM | IC50 (A498): 137 nM | IC50 (SK-MEL-28): 132 nM | IC50 (OVCAR-5): 155 nM

COc1cccc2c1C(=O)c1c(O)c3c(c(O)c1C2=O)C[C@@](O)(C(=O)CO)C[C@@H]3O[C@H]1C[C@H](N2C=CCC2)[C@H](O)[C@H](C)O1 [PyDox, 2-pyrrolino-doxorubicin]
Potency in vitro relative to Dox [2]: 500-1000 times | Hamsters that died [3]: 16 of 18 | Animals that died ([4]; 3×25 nmol/kg, rats): 6 of 10 | Change in the number of mitotic or apoptotic cells ([4]; after treatment in rats): no significant change in the number of mitotic or apoptotic cells | Mortality ([4]; dose of 50 nmol/kg, rats): death of all rats

CC(=O)O[C@H]1C(=O)[C@@]2(C)[C@H]([C@H](OC(=O)c3ccccc3)[C@]3(O)C[C@H](OC(=O)[C@H](O)[C@@H](NC(=O)c4ccccc4)c4ccccc4)C(C)=C1C3(C)C)[C@]1(OC(C)=O)CO[C@@H]1C[C@@H]2O [paclitaxel]
Tumor growth [5]: failed to exert any effect on tumor growth

— patent US20250032525A1 (priority 2021, published 2025)
